Where a name gives a salt, the structure may show the parent alone.

The assay concerns the target T1, recombinant human ALK enzyme (ALK WT) (Homo sapiens, UniProt Q9UM73).
T1 construct: purchased Carna Biosciences 08-518
As to the kind of experiment: ALK WT cell free enzymatic assay (TR-FRET). It is filed as biochemical. Particulars: 1 μM ATP; for IC50: 10 point dose response; for inhibition at 0.1 µM: compound at 100 nM; for inhibition at 0.1 µM / inhibition at 1 µM: 30 min pre-incubation; for inhibition at 1 µM: compound at 1 μM. How it is done: ALK Wild Type (WT) The ALK WT cell free assay was set up to evaluate the effects of these compounds as inhibitors of ALK enzyme. The enzymatic assay was standardized using recombinant human ALK enzyme (Cat#08-518) from Carna Biosciences using Ultra Light Poly GT (Cat# TRF 0100D) from Perkin Elmer as a substrate. TR-FRET (Time resolved fluorescence resonance energy transfer) detection technology was used for the read out. The final assay conditions were 50 mM HEPES pH 7.1, 10 mM MgCl2, 2 mM MnCl2, 0.01% BSA, 2.5 mM DTT, 0.1 mM Na3 VO4, 40 nM Ultra Light Poly GT, 2.5 ng ALK WT enzyme, 1 μM ATP and 125 nM Lance Eu-W1024 labeled anti phospho tyrosine antibody (Cat# AD0203, Perkin Elmer) in 384 well format. The assay reaction time with the substrate was 30 minutes after which the antibody detection mix is added. The TR-FRET signal (Excitation at 340 nm, Emission at 615 nm and 665 nm) was read with 50 μs delay time on Victor^3 V fluorimeter. The data is calculated using the ratio of reading at 665 nM to 615 nM. The final concentration of DMSO was 1% in the assay. Compounds were screened at 100 nM and 1 μM concentrations with pre-incubation of the enzymes with compound for 30 minutes. Each individual IC50 was determined using 10 point dose response curve generated by GraphPad Prism software Version 4 (San Diego, Calif., USA) using non linear regression curve fit for sigmoidal dose response (variable slope). Percentage inhibition at concentrations of 100 nM and 1.0 μM are given in table along with the IC50 (nM) details for selected examples.
Background: In TR-FRET formats the signal depends on donor and acceptor labels being close together.

T1 sequence (Q9UM73 1058-1620 limits assumed): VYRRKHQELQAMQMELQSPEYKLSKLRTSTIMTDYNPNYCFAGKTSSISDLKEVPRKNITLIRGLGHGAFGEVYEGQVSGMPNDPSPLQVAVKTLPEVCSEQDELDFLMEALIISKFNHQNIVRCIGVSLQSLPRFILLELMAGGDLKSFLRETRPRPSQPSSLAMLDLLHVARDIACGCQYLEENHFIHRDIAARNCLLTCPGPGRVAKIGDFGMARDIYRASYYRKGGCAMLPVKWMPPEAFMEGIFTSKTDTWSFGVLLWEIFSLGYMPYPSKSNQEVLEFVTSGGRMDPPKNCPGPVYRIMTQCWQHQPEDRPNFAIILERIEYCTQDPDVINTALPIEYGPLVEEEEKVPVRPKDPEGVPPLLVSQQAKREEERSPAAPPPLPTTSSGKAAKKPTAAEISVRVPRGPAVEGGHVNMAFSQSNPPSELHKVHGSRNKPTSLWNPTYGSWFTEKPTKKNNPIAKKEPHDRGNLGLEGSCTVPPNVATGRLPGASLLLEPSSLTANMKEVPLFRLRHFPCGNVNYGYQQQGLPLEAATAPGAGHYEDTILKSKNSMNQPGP

In the case of `Cc1nn(Cc2cccc(F)c2)c(C)c1-c1c[nH]c2ncc(-c3ccc(N4CCN(CCO)CC4)cc3)cc12` [Example 41, 2-(4-(4-(3-(1-(3-fluorobenzyl)-3,5-dimethyl-1H-pyrazol-4-yl)-1H-pyrrolo[2,3-b]pyridin-5-yl)phenyl)piperazin-1-yl)ethanol], the IC50 (in general, the point on the concentration scale where inhibition reaches its midpoint) was less than 50 nM; the inhibition (as a rule, the share of the control response that was lost under treatment) at 0.1 µM amounted to 90%; the inhibition at 1 µM was 100%.

For the compound `Cc1nn(Cc2cc(F)ccc2F)c(C)c1-c1c[nH]c2ncc(-c3ccc(N4CCNCC4)cc3)cc12` [Example 42, 3-(1-(2,5-difluorobenzyl)-3,5-dimethyl-1H-pyrazol-4-yl)-5-(4-(piperazin-1-yl)phenyl)-1H-pyrrolo[2,3-b]pyridine hydrochloride], the 50% inhibitory concentration (IC50) was less than 50 nM, the inhibition at 0.1 µM came out at 92% and the inhibition at 1 µM turned out to be 100%.

Regarding `Cc1nn(Cc2cc(F)cc(F)c2)c(C)c1-c1c[nH]c2ncc(-c3ccc(N4CCNCC4)cc3)cc12` [Example 43, 3-(1-(3,5-difluorobenzyl)-3,5-dimethyl-1H-pyrazol-4-yl)-5-(4-(piperazin-1-yl)phenyl)-1H-pyrrolo[2,3-b]pyridine hydrochloride], the IC50 is less than 50 nM, the inhibition at 0.1 µM is 92% and the inhibition at 1 µM stood at 99%.

Regarding `Cc1c(-c2c[nH]c3ncc(-c4ccc(N5CCNCC5)cc4)cc23)cnn1Cc1cccc(F)c1` [Example 44, 3-(1-(3-fluorobenzyl)-5-methyl-1H-pyrazol-4-yl)-5-(4-(piperazin-1-yl)phenyl)-1H-pyrrolo[2,3-b]pyridine hydrochloride], the concentration for half-maximal inhibition (IC50) is less than 50 nM, the inhibition at 0.1 µM turned out to be 95% and the inhibition at 1 µM is 100%.

In the case of `Cc1nn(Cc2cccc(F)c2)c(C)c1-c1c[nH]c2ncc(-c3ccc(N4CCOCC4)cc3)cc12` [Example 45, 4-(4-(3-(1-(3-fluorobenzyl)-3,5-dimethyl-1H-pyrazol-4-yl)-1H-pyrrolo[2,3-b]pyridin-5-yl)phenyl) morpholine], the 50% inhibitory concentration (IC50) is 50 to 250 nM, the inhibition at 0.1 µM was 51% and the inhibition at 1 µM was 80%.

In the case of `COc1cccc(Cn2nc(C)c(-c3c[nH]c4ncc(-c5ccc(N6CCNCC6)cc5)cc34)c2C)c1` [Example 46, 3-(1-(3-methoxybenzyl)-3,5-dimethyl-1H-pyrazol-4-yl)-5-(4-(piperazin-1-yl)phenyl)-1H-pyrrolo[2,3-b]pyridine hydrochloride], the IC50 was less than 50 nM, the inhibition at 0.1 µM amounted to 80% and the inhibition at 1 µM amounted to 98%.

Consider `Cc1nn(Cc2cccc(Cl)c2)c(C)c1-c1c[nH]c2ncc(-c3ccc(N4CCNCC4)cc3)cc12` [Example 47, 3-(1-(3-chlorobenzyl)-3,5-dimethyl-1H-pyrazol-4-yl)-5-(4-(piperazin-1-yl)phenyl)-1H-pyrrolo[2,3-b]pyridine hydrochloride], for which the concentration for half-maximal inhibition (IC50) was less than 50 nM, the inhibition at 0.1 µM amounted to 90% and the inhibition at 1 µM amounted to 100%.

`Cc1nn(Cc2cccc(C#N)c2)c(C)c1-c1c[nH]c2ncc(-c3ccc(N4CCNCC4)cc3)cc12` [Example 48, 3-((3,5-dimethyl-4-(5-(4-(piperazin-1-yl)phenyl)-1H-pyrrolo[2,3-b]pyridin-3-yl)-1H-pyrazol-1-yl)methyl)benzonitrile hydrochloride]: the IC50 lay in the range of 50 to 250 nM, the inhibition at 0.1 µM was 52% and the inhibition at 1 µM was 83%.

In the case of `CC(=O)N1CCN(c2ccc(-c3cnc4[nH]cc(-c5c(C)nn(Cc6cccc(F)c6)c5C)c4c3)cc2)CC1` [Example 49, 1-(4-(4-(3-(1-(3-fluorobenzyl)-3,5-dimethyl-1H-pyrazol-4-yl)-1H-pyrrolo[2,3-b]pyridin-5-yl)phenyl)piperazin-1-yl)ethanone], the IC50 is less than 50 nM, the inhibition at 0.1 µM was determined as 70% and the inhibition at 1 µM amounted to 91%.

In the case of `CC(=O)Nc1cccc(Cn2nc(C)c(-c3c[nH]c4ncc(-c5ccc(N6CCNCC6)cc5)cc34)c2C)c1` [Example 50, N-(3-((3,5-dimethyl-4-(5-(4-(piperazin-1-yl)phenyl)-1H-pyrrolo[2,3-b]pyridin-3-yl)-1H-pyrazol-1-yl)methyl)phenyl)acetamide], the half-inhibitory concentration (IC50) was less than 50 nM, the inhibition at 0.1 µM amounted to 60% and the inhibition at 1 µM amounted to 89%.

Turning to `Cc1cccc(Cn2nc(C)c(-c3c[nH]c4ncc(-c5ccc(N6CCNCC6)cc5)cc34)c2C)c1` [Example 51, 3-(3,5-dimethyl-1-(3-methylbenzyl)-1H-pyrazol-4-yl)-5-(4-(piperazin-1-yl)phenyl)-1H-pyrrolo[2,3-b]pyridine hydrochloride], the IC50 was less than 50 nM, the inhibition at 0.1 µM was determined as 84% and the inhibition at 1 µM was determined as 100%.

Consider `Cc1nn(Cc2cccc(OC(F)(F)F)c2)c(C)c1-c1c[nH]c2ncc(-c3ccc(N4CCNCC4)cc3)cc12` [Example 52, 3-(3,5-dimethyl-1-(3-(trifluoromethoxy)benzyl)-1H-pyrazol-4-yl)-5-(4-(piperazin-1-yl)phenyl)-1H-pyrrolo[2,3-b]pyridine hydrochloride], for which the IC50 is greater than 250 nM, the inhibition at 0.1 µM worked out at 12% and the inhibition at 1 µM was 80%.

As to `CCOc1cccc(Cn2nc(C)c(-c3c[nH]c4ncc(-c5ccc(N6CCNCC6)cc5)cc34)c2C)c1` [Example 54, 3-(1-(3-ethoxybenzyl)-3,5-dimethyl-1H-pyrazol-4-yl)-5-(4-(piperazin-1-yl)phenyl)-1H-pyrrolo[2,3-b]pyridine hydrochloride], the inhibition at 0.1 µM was 0% and the inhibition at 1 µM worked out at 25%.

For the compound `Cc1nn(Cc2cccc(F)c2)c(C)c1-c1c[nH]c2nc(C3CC3)c(-c3ccc(N4CCNCC4)cc3)cc12` [Example 55, 6-cyclopropyl-3-(1-(3-fluorobenzyl)-3,5-dimethyl-1H-pyrazol-4-yl)-5-(4-(piperazin-1-yl)phenyl)-1H-pyrrolo[2,3-b]pyridine hydrochloride], the inhibition at 0.1 µM was 2% and the inhibition at 1 µM amounted to 43%.

For the compound `Cc1nn(Cc2cccc(F)c2)c(C)c1-c1c[nH]c2ncc(-c3ccc(N4CCN(C)CC4)cc3)cc12` [Example 56, 3-(1-(3-fluorobenzyl)-3,5-dimethyl-1H-pyrazol-4-yl)-5-(4-(4-methylpiperazin-1-yl)phenyl)-1H pyrrolo[2,3-b]pyridine], the 50% inhibitory concentration (IC50) was less than 50 nM, the inhibition at 0.1 µM is 91% and the inhibition at 1 µM was determined as 100%.

Consider `Cc1nn(Cc2cccc(F)c2)c(C)c1-c1c[nH]c2ncc(-c3ccc(N4CCN(CCN(C)C)CC4)cc3)cc12` [Example 57, 2-(4-(4-(3-(1-(3-fluorobenzyl)-3,5-dimethyl-1H-pyrazol-4-yl)-1H-pyrrolo[2,3-b]pyridin-5-yl)phenyl)piperazin-1-yl)-N,N-dimethylethanamine], for which the IC50 is less than 50 nM, the inhibition at 0.1 µM was 93% and the inhibition at 1 µM came to 100%.

Regarding `Cc1nn(Cc2cccc(F)c2)c(C)c1-c1c[nH]c2ncc(-c3ccc(N4CCNCC4)c(NS(C)(=O)=O)c3)cc12` [Example 58, N-(5-(3-(1-(3-fluorobenzyl)-3,5-dimethyl-1H-pyrazol-4-yl)-1H-pyrrolo[2,3-b]pyridin-5-yl)-2-(piperazin-1-yl)phenyl)methanesulfonamide hydrochloride], the IC50 is less than 50 nM, the inhibition at 0.1 µM was 92% and the inhibition at 1 µM was 100%.

As to `Cc1nn(Cc2cccc(F)c2)c(C)c1-c1c[nH]c2ncc(-c3ccc(N4CCOCC4)c(NS(C)(=O)=O)c3)cc12` [Example 59, N-(5-(3-(1-(3-fluorobenzyl)-3,5-dimethyl-1H-pyrazol-4-yl)-1H-pyrrolo[2,3-b]pyridin-5-yl)-2-morpholinophenyl)methanesulfonamide], the IC50 lay in the range of 50 to 250 nM, the inhibition at 0.1 µM is 49% and the inhibition at 1 µM was determined as 77%.

Consider `Cc1nn(Cc2cc(F)cc(F)c2)c(C)c1-c1c[nH]c2nc(C3CC3)c(-c3ccc(N4CCNCC4)cc3)cc12` [Example 60, 6-cyclopropyl-3-(1-(3,5-difluorobenzyl)-3,5-dimethyl-1H-pyrazol-4-yl)-5-(4-(piperazin-1-yl)phenyl)-1H-pyrrolo[2,3-b]pyridine hydrochloride], for which the inhibition at 0.1 µM was found to be 9% and the inhibition at 1 µM came out at 10%.

With `COc1cc(N2CCNCC2)ccc1-c1cnc2[nH]cc(-c3c(C)nn(Cc4cccc(F)c4)c3C)c2c1` [Example 61, 3-(1-(3-fluorobenzyl)-3,5-dimethyl-1H-pyrazol-4-yl)-5-(2-methoxy-4-(piperazin-1-yl)phenyl)-1H-pyrrolo[2,3-b]pyridine hydrochloride], the concentration for half-maximal inhibition (IC50) was less than 50 nM, the inhibition at 0.1 µM turned out to be 73% and the inhibition at 1 µM came out at 96%.

Values taken from patent US9353107B2 (Aurigene Discovery Technologies Limited, priority 2012, dated 2016).
